These are literature values, as cited in US7553863B2, “Ultrapure 4-methylpyrazole” (Paladin Labs (Barbados) Inc., priority 2005, dated 2009).

The conditions of data set [1]: H. Kohno et al., Cancer Sci. 2005.
Another data set deals with alcohol dehydrogenase. The conditions noted are these: relative to 4-methylpyrazole; T. Li et al., Acta Chem. Scan. 1969.
The conditions of data set [2]: Eisses, 1995.
Data set [3] has as its system brain levels of noradrenaline. To be noted: in contrast to 4-methylpyrazole; E. MacDonald, Acta Pharmacol. et Toxicol. 1976.

For `NN` [Hydrazine], in data set [1], the mutagenicity and carcinogenicity entry is “known mutagens and carcinogens”.
Consider `c1cn[nH]c1` [Pyrazole], for which the “fold less potency against alcohol dehydrogenase” value with alcohol dehydrogenase was 10 fold. Further, the teratogenicity result in data set [2] is reported as “known teratogen”. The “effect on brain levels of noradrenaline” value in data set [3] is recorded as “detrimental effect”.
